The assay has as its target T1, human GLP-1R receptor (Homo sapiens, UniProt P43220).
T1 construct: expressed in transfected cells
Briefly: GLP-1R low expression cell assay (cAMP TR-FRET, CHO-K1_hGLP-1Rlow_clone10 cells). Format: cell-based. As to conditions: for pEC50: cAMP TR-FRET, 30 min at 25° C.; for Emax: maximum activation relative to control GLP-1 peptide agonist. The method, boiled down: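 CHO-K1 cells stably expressing low surface human GLP-1R (clone10), 1,000 cells/well, exposed to 10-point 3-fold compound dilutions for 30 min at 25 °C. cAMP measured by TR-FRET (Eu-cAMP tracer/ULight-anti-cAMP, 15 min). EC50 from Hill fit of duplicate percent activation relative to a parallel GLP-1 control agonist.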

The structures appear in SMILES notation. pEC50: −log10 of the molar value.

As a reminder, the pEC50 is the negative decadic logarithm of the EC50, by convention in mol/L. A higher pEC50 goes with a small EC50. The term Emax denotes the size of the effect at its maximum, as opposed to the concentration needed.

T1 sequence (P43220 24-463): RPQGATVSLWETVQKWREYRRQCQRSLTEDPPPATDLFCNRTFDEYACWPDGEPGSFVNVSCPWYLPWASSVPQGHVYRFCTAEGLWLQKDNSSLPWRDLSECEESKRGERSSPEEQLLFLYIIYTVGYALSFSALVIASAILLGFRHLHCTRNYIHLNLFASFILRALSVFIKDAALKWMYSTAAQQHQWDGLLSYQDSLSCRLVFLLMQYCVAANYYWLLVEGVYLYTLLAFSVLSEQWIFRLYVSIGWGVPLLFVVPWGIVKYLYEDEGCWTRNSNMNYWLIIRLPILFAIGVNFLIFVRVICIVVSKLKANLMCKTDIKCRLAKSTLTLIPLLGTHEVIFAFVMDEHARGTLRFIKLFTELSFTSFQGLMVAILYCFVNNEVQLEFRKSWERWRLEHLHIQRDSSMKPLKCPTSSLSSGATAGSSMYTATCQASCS

`C[C@@H](F)Oc1cc(C(=O)O)cc2c1nc(CN1CCC(c3cccc(OCc4ccc(C#N)cc4F)n3)CC1)n2C` [Compound 312, (R)-2-((4-(6-((4-Cyano-2-fluorobenzyl)oxy)pyridin-2-yl)piperidin-1-yl)methyl)-4-(1-fluoroethoxy)-1-methyl-1H-benzo[d]imidazole-6-carboxylic acid] gave a pEC50 of 7.00 to 8.00 and an Emax of more than 85%.
The corresponding values for `C[C@H](F)Oc1cc(C(=O)O)cc2c1nc(CN1CCC(c3cccc(OCc4ccc(C#N)cc4F)n3)CC1)n2C` [Compound 313, (S)-2-((4-(6-((4-Cyano-2-fluorobenzyl)oxy)pyridin-2-yl)piperidin-1-yl)methyl)-4-(1-fluoroethoxy)-1-methyl-1H-benzo[d]imidazole-6-carboxylic acid] are 7.00 to 8.00 and more than 85%.
The corresponding values for `COc1cc(C(=O)O)cc2c1nc(CN1CCC(c3cccc4c3O[C@@H](c3ccc(C#N)cc3F)CO4)CC1)n2C` [Compound 314, (S)-2-((4-(3-(4-Cyano-2-fluorophenyl)-2,3-dihydrobenzo[b][1,4]dioxin-5-yl)piperidin-1-yl)methyl)-4-methoxy-1-methyl-1H-benzo[d]imidazole-6-carboxylic acid] are less than 6.00 and 25 to 50%.
In turn, `Cn1c(CN2CCC(c3cccc4c3O[C@H](c3ccc(C#N)cc3F)CO4)CC2)nc2c(OCCF)cc(C(=O)O)cc21` [Compound 315, (R)-2-((4-(3-(4-Cyano-2-fluorophenyl)-2,3-dihydrobenzo[b][1,4]dioxin-5-yl)piperidin-1-yl)methyl)-4-(2-fluoroethoxy)-1-methyl-1H-benzo[d]imidazole-6-carboxylic acid] had a pEC50 of 7.00 to 8.00 and an Emax of more than 85%.
The corresponding values for `Cn1c(CN2CCC(c3cccc(OCc4ccc(Cl)cc4F)n3)CC2)nc2c(OC(F)F)cc(-c3cc(O)no3)cc21` [Compound 316, 5-(2-((4-(6-((4-Chloro-2-fluorobenzyl)oxy)pyridin-2-yl)piperidin-1-yl)methyl)-4-(difluoromethoxy)-1-methyl-1H-benzo[d]imidazol-6-yl) isoxazol-3-ol] are 6.00 to 7.00 and 50 to 85%.
The compound `CO[C@H]1C[C@H](Oc2cc(C(=O)O)cc3c2nc(CN2CCC(c4cccc(OCc5ccc(C#N)cc5F)n4)CC2)n3C)C1` [Compound 317, 2-((4-(6-((4-Cyano-2-fluorobenzyl)oxy)pyridin-2-yl)piperidin-1-yl)methyl)-4-((1r,3r)-3-methoxycyclobutoxy)-1-methyl-1H-benzo[d]imidazole-6-carboxylic acid] had a pEC50 of 6.00 to 7.00 and an Emax of more than 85%.
Turning to `CO[C@H]1C[C@@H](Oc2cc(C(=O)O)cc3c2nc(CN2CCC(c4cccc(OCc5ccc(C#N)cc5F)n4)CC2)n3C)C1` [Compound 318, 2-((4-(6-((4-Cyano-2-fluorobenzyl)oxy)pyridin-2-yl)piperidin-1-yl)methyl)-4-((1s,3s)-3-methoxycyclobutoxy)-1-methyl-1H-benzo[d]imidazole-6-carboxylic acid], the pEC50 was 6.00 to 7.00 and the Emax was more than 85%.
The matching figures for `CCCOc1cc(C(=O)O)cc2c1nc(CN1CCC(c3cccc(OCc4ccc(C#N)cc4F)n3)CC1)n2C` [Compound 319, 2-((4-(6-((4-Cyano-2-fluorobenzyl)oxy)pyridin-2-yl)piperidin-1-yl)methyl)-1-methyl-4-propoxy-1H-benzo[d]imidazole-6-carboxylic acid]: 7.00 to 8.00 and more than 85%.
As for `CC(CO)Oc1cc(C(=O)O)cc2c1nc(CN1CCC(c3cccc(OCc4ccc(Cl)cc4F)n3)CC1)n2C` (centres unmarked) [Compound 320, 2-((4-(6-((4-Chloro-2-fluorobenzyl)oxy)pyridin-2-yl)piperidin-1-yl)methyl)-4-((1-hydroxypropan-2-yl)oxy)-1-methyl-1H-benzo[d]imidazole-6-carboxylic acid], the pEC50 is 7.00 to 8.00 and the Emax was more than 85%.
The matching figures for `[2H]C([2H])(Oc1cccc(C2CCN(C([2H])([2H])c3nc4c(OC(F)F)cc(C(=O)O)cc4n3C)CC2)n1)c1ccc(Cl)cc1F` [Compound 321, 2-((4-(6-((4-Chloro-2-fluorophenyl)methoxy-d2)pyridin-2-yl)piperidin-1-yl)methyl-d2)-4-(difluoromethoxy)-1-methyl-1H-benzo[d]imidazole-6-carboxylic acid]: 7.00 to 8.00 and more than 85%.
The corresponding values for `CCCOc1cc(C(=O)O)cc2c1nc(CN1CCC(c3cccc(OCc4ccc(Cl)cc4F)n3)CC1)n2C` [Compound 322, 2-((4-(6-((4-chloro-2-fluorobenzyl)oxy)pyridin-2-yl)piperidin-1-yl)methyl)-1-methyl-4-propoxy-1H-benzo[d]imidazole-6-carboxylic acid] are 7.00 to 8.00 and more than 85%.
The corresponding values for `COc1cc(C(=O)O)nc2c1nc(CN1CCC(c3cccc(OCc4ccc(C#N)cc4F)n3)CC1)n2C` [Compound 323, 2-((4-(6-((4-Cyano-2-fluorobenzyl)oxy)pyridin-2-yl)piperidin-1-yl)methyl)-7-methoxy-3-methyl-3H-imidazo[4,5-b] pyridine-5-carboxylic acid] are 7.00 to 8.00 and more than 85%.
As for `COc1cc(C(=O)O)nc2c1nc(CN1CCC(c3cccc(OCc4ccc(Cl)cc4F)n3)CC1)n2C` [Compound 324, 2-((4-(6-((4-Chloro-2-fluorobenzyl)oxy)pyridin-2-yl)piperidin-1-yl)methyl)-7-methoxy-3-methyl-3H-imidazo[4,5-b]pyridine-5-carboxylic acid], the pEC50 is 7.00 to 8.00 and the Emax is more than 85%.
The matching figures for `CO[C@H]1C[C@H](Oc2cc(C(=O)O)cc3c2nc(CN2CCC(c4cccc(OCc5ccc(Cl)cc5F)n4)CC2)n3C)C1` [Compound 325, 2-((4-(6-((4-Chloro-2-fluorobenzyl)oxy)pyridin-2-yl)piperidin-1-yl)methyl)-4-((1r,3r)-3-methoxycyclobutoxy)-1-methyl-1H-benzo[d]imidazole-6-carboxylic acid]: 6.00 to 7.00 and more than 85%.
`Cn1c(CN2CCC(c3cccc4c3OC[C@H](c3ccc(C#N)cc3F)O4)CC2)nc2c(OC(F)F)cc(C(=O)O)cc21` [Compound 326, (S)-2-((4-(2-(4-Cyano-2-fluorophenyl)-2,3-dihydrobenzo[b][1,4]dioxin-5-yl)piperidin-1-yl)methyl)-4-(difluoromethoxy)-1-methyl-1H-benzo[d]imidazole-6-carboxylic acid] showed a pEC50 of less than 6.00 and a maximal response (Emax) of less than 25%.
Compound `COc1cc(C(=O)O)cc2c1nc(CN1CCC(c3cccc(OCc4cc(F)c(C#N)cc4F)n3)CC1)n2C` [Compound 327, 2-((4-(6-((4-Cyano-2,5-difluorobenzyl)oxy)pyridin-2-yl)piperidin-1-yl)methyl)-4-methoxy-1-methyl-1H-benzo[d]imidazole-6-carboxylic acid] showed a pEC50 of more than 8.00 and an Emax of more than 85%.
As for `Cn1c(CN2CCC(c3cccc(OCc4ccc(Cl)cc4F)n3)CC2)nc2c(OC(F)F)cc(C(=O)O)nc21` [Compound 328, 2-((4-(6-((4-Chloro-2-fluorobenzyl)oxy)pyridin-2-yl)piperidin-1-yl)methyl)-7-(difluoromethoxy)-3-methyl-3H-imidazo[4,5-b]pyridine-5-carboxylic acid], the pEC50 was 7.00 to 8.00 and the maximum response (Emax) was more than 85%.
Compound `Cn1c(CN2CCC(c3cccc(OCc4ccc(Cl)c5c4OCC5)n3)CC2)nc2c(OC(F)F)cc(C(=O)O)cc21` [Compound 331, 2-((4-(6-((4-Chloro-2,3-dihydrobenzofuran-7-yl)methoxy)pyridin-2-yl)piperidin-1-yl)methyl)-4-(difluoromethoxy)-1-methyl-1H-benzo[d]imidazole-6-carboxylic acid] gave a pEC50 of 7.00 to 8.00 and an Emax of more than 85%.
The corresponding values for `Cn1c(CN2CCC(c3cccc4c3O[C@H](c3ccc(Cl)cc3F)CO4)CC2)nc2c(OCCF)cc(C(=O)O)cc21` [Compound 333, (R)-2-((4-(3-(4-chloro-2-fluorophenyl)-2,3-dihydrobenzo[b][1,4]dioxin-5-yl)piperidin-1-yl)methyl)-4-(2-fluoroethoxy)-1-methyl-1H-benzo[d]imidazole-6-carboxylic acid] are 6.00 to 7.00 and more than 85%.
The matching figures for `Cn1c(CN2CCC(c3cccc4c3O[C@@H](c3ccc(Cl)cc3F)CO4)CC2)nc2c(OC(F)F)cc(C(=O)O)cc21` [Compound 334, (S)-2-((4-(3-(4-Chloro-2-fluorophenyl)-2,3-dihydrobenzo[b][1,4]dioxin-5-yl)piperidin-1-yl)methyl)-4-(difluoromethoxy)-1-methyl-1H-benzo[d]imidazole-6-carboxylic acid]: 7.00 to 8.00 and more than 85%.
The corresponding values for `Cn1c(CN2CCC(c3cccc4c3O[C@H](c3ccc(Cl)cc3F)CO4)CC2)nc2c(OC(F)F)cc(C(=O)O)cc21` [Compound 335, (R)-2-((4-(3-(4-Chloro-2-fluorophenyl)-2,3-dihydrobenzo[b][1,4]dioxin-5-yl)piperidin-1-yl)methyl)-4-(difluoromethoxy)-1-methyl-1H-benzo[d]imidazole-6-carboxylic acid] are less than 6.00 and 50 to 85%.
Turning to `COc1c(F)c(C(=O)O)cc2nc(CN3CCC(c4cccc(OCc5ccc(C#N)cc5F)n4)CC3)n(C)c12` [Compound 336, 2-((4-(6-((4-Cyano-2-fluorobenzyl)oxy)pyridin-2-yl)piperidin-1-yl)methyl)-6-fluoro-7-methoxy-1-methyl-1H-benzo[d]imidazole-5-carboxylic acid], the pEC50 was less than 6.00 and the maximal effect (Emax) was less than 25%.

The values above are taken from US20240368120A1 (Terns Pharmaceuticals, Inc., priority 2023, published 2024).
